# Experimental data taken from US8338336B2, “Synergistic herbicidal composition containing penoxsulam and oxyfluorfen” (Dow AgroSciences, LLC, priority 2010, dated 2012).
# Assays:
# Assay type in all cases: in vivo
# [1] = test system: SOLNI = black nightshade (Solanum nigrum); assay: Field trial, autumn post-emergence application, post-emergence burndown activity (Table 4); details: Seville; for % Control SOLNI(2) Ob (observed visual weed control): Spain - 7 Days After Application; for % Control SOLNI(1) Ob (observed visual weed control): Spain - 20 Days After Application
# Protocol: (§1) Evaluation of Pre-Emergence and Post-Emergence Herbicidal Activity of Mixtures in the Field
# (§2) Field trials were conducted in perennial tree and vine crops using standard herbicide small plot research methodology. Plots varied from 3×3 meter (m) to 3×10 m (width×length) with 3 to 4 replicates per treatment. The perennial tree and vine crops were grown using normal cultural practices for the respective areas for the trials, using normal planting, fertilization, watering, flooding and maintenance for pests to ensure good growth of the crop and the weeds.
# (§3) All treatments in the field trials were applied using a carbon dioxide (CO2) backpack sprayer calibrated to apply 187 liters per hectare (L/ha) spray volume. Commercially available products of penoxsulam and oxyfluorfen were mixed in water at appropriate formulated product rates to achieve the desired rates shown based on a unit area of application (hectare). Treatments were rated at different intervals from treatment to evaluation, from 7 to 175 days after application as compared to the untreated control plants. Due to the long term residual weed control needed to determine the synergistic effect, all single entity products and their tank mixes were mixed with glyphosate to ensure complete weed burndown to be able to measure residual weed control and not just burndown of weeds. Visual weed control was scored on a scale of 0 to 100 percent where 0 corresponds to no injury and 100 corresponds to complete kill.
# (§4) Colby's equation was used to determine the herbicidal effects expected from the mixtures (Colby, S. R. Calculation of the synergistic and antagonistic response of herbicide combinations. Weeds 1967, 15, 20-22).
# (§5) The following equation was used to calculate the expected activity of mixtures containing two active ingredients, A and B: Expected=A+B−(A×B/100)
# (§6) A=observed efficacy of active ingredient A at the same concentration as used in the mixture.
# (§7) B=observed efficacy of active ingredient B at the same concentration as used in the mixture.
# [2] = test system: POROL = purslane (Portulaca oleracea); assay: Field trial, autumn post-emergence application, residual weed control (Table 3); details: rated 56 Days After Application
# Protocol: as §1, §2, §3, §4, §5, §6, §7
# [3] = test system: HEOEU = common heliotrope (Heliotropium europaeum); assay: as above; details: rated 56 Days After Application
# Protocol: as §1, §2, §3, §4, §5, §6, §7
# [4] = test system: CHEAL = common lambsquarter (Chenopodium album); assay: as above; details: rated 56 Days After Application
# Protocol: as §1, §2, §3, §4, §5, §6, §7
# [5] = test system: ERICA = marestail (Conyza canadensis); assay: Field trial, winter pre-emergence application, residual weed control (Table 1); details: rated 50 to 132 Days After Application
# Protocol: as §1, §2, §3, §4, §5, §6, §7
# [6] = test system: ERIBO = fleabane (Conyza bonariensis); assay: as above; details: rated 50 to 132 Days After Application
# Protocol: as §1, §2, §3, §4, §5, §6, §7
# [7] = test system: MALNE = mallow/malva (Malva neglecta); assay: as above; details: rated 50 to 132 Days After Application
# Protocol: as §1, §2, §3, §4, §5, §6, §7
# [8] = test system: ERICA = marestail (Conyza canadensis); assay: Field trial, autumn pre-emergence application, residual weed control (Table 2); details: Spain, rated 97 to 175 Days After Application; for % Control ERICA (2) Ob (observed visual weed control): Moron de la frontera; for % Control ERICA (1) Ob (observed visual weed control): Utrera
# Protocol: as §1, §2, §3, §4, §5, §6, §7
# [9] = test system: SHRAR = field madder (Sherardia arvensis); assay: as above; details: rated 97 to 175 Days After Application
# Protocol: as §1, §2, §3, §4, §5, §6, §7
smiles,measurement,setting,value
CCOc1cc(Oc2ccc(C(F)(F)F)cc2Cl)ccc1[N+](=O)[O-] [Oxyfluorfen],% Control SOLNI(2) Ob (observed visual weed control),[1]; oxyfluorfen 150 g/ha alone,45%
same,% Control SOLNI(1) Ob (observed visual weed control),[1]; oxyfluorfen 150 g/ha alone,35%
same,% Control POROL Ob (observed visual weed control),[2]; oxyfluorfen 150 g/ha alone,0%
same,% Control HEOEU Ob (observed visual weed control),[3]; oxyfluorfen 150 g/ha alone,0%
same,% Control CHEAL Ob (observed visual weed control),[4]; oxyfluorfen 150 g/ha alone,0%
same,% Control ERICA Ob (observed visual weed control),[5]; oxyfluorfen 1680 g/ha alone,5%
same,% Control ERIBO Ob (observed visual weed control),[6]; oxyfluorfen 1120 g/ha alone,0%
same,% Control MALNE Ob (observed visual weed control),[7]; oxyfluorfen 1680 g/ha alone,30%
same,% Control ERICA (2) Ob (observed visual weed control),[8]; oxyfluorfen 150 g/ha alone,79%
same,% Control ERICA (1) Ob (observed visual weed control),[8]; oxyfluorfen 150 g/ha alone,38%
same,% Control SHRAR Ob (observed visual weed control),[9]; oxyfluorfen 150 g/ha alone,63%
"COc1cnc(OC)n2nc(NS(=O)(=O)c3c(OCC(F)F)cccc3C(F)(F)F)nc12 [Penoxsulam, 2-(2,2-difluoroethoxy)-N-(5,8-dimethoxy-[1,2,4]triazolo[1,5-c]pyrimidin-2-yl)-6-(trifluoromethyl)benzenesulfonamide]",% Control SOLNI(2) Ob (observed visual weed control),[1]; penoxsulam 20 g/ha alone,10%
same,% Control SOLNI(1) Ob (observed visual weed control),[1]; penoxsulam 20 g/ha alone,10%
same,% Control POROL Ob (observed visual weed control),[2]; penoxsulam 20 g/ha alone,0%
same,% Control HEOEU Ob (observed visual weed control),[3]; penoxsulam 20 g/ha alone,0%
same,% Control CHEAL Ob (observed visual weed control),[4]; penoxsulam 20 g/ha alone,0%
same,% Control ERICA Ob (observed visual weed control),[5]; penoxsulam 8.8 g/ha alone,75%
same,% Control ERIBO Ob (observed visual weed control),[6]; penoxsulam 8.8 g/ha alone,65%
same,% Control MALNE Ob (observed visual weed control),[7]; penoxsulam 17.5 g/ha alone,37%
same,% Control MALNE Ob (observed visual weed control),[7]; penoxsulam 35 g/ha alone,50%
same,% Control ERICA (2) Ob (observed visual weed control),[8]; penoxsulam 20 g/ha alone,6%
same,% Control ERICA (1) Ob (observed visual weed control),[8]; penoxsulam 20 g/ha alone,23%
same,% Control SHRAR Ob (observed visual weed control),[9]; penoxsulam 20 g/ha alone,0%
